These results are taken from US20250100968A1, “BICYCLIC-HETEROCYCLE DERIVATIVES AND RELATED USES” (CENTESSA PHARMACEUTICALS (UK) LIMITED, priority 2022, published 2025).
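Also: agonist activity in CHO cells stably expressing hOX2R, intracellular Ca2+ via Calcium 5 dye fluorescence area over 2 min, buffer-only as 0% and 10 nM orexin A as 100%.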

In the test the target is T1, human orexin type 2 receptor (hOX2R) (Homo sapiens, UniProt O43614).
T1 sequence (O43614 1-444): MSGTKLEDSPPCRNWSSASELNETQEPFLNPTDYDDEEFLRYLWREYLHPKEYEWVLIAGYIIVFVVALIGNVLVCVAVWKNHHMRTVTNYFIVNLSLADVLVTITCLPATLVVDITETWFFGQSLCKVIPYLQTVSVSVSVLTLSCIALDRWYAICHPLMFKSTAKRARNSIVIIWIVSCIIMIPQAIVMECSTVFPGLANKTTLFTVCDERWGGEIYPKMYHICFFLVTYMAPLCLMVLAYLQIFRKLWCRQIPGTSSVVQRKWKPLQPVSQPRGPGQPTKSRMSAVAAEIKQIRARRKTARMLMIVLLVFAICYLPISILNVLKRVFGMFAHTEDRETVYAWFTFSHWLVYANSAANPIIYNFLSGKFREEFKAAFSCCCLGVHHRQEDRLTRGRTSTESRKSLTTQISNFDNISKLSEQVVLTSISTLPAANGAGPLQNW
Briefly: cell-based.
The compound `O=C([C@@H](O)C1CC1)N1CC2(CC2)[C@H](NS(=O)(=O)C(F)F)[C@@H]1Cc1cc(F)cc(-c2ccccc2)c1F` [compound 27, N-((6S,7S)-5-((S)-2-cyclopropyl-2-hydroxyacetyl)-6-((2,5-difluoro-[1,1′-biphenyl]-3-yl)methyl)-5-azaspiro[2.4]heptan-7-yl)-1,1-difluoromethanesulfonamide] came in with an EC50 of 0.0631 to 1 nM.

As to `O=C([C@H](O)CF)N1CC2(CC2)[C@H](NS(=O)(=O)CF)[C@@H]1Cc1cccc(-c2cc(F)cc(F)c2)c1F` [compound 23, 1-fluoro-N-((6S,7S)-5-((S)-3-fluoro-2-hydroxypropanoyl)-6-((2,3′,5′-trifluoro-[1,1′-biphenyl]-3-yl)methyl)-5-azaspiro[2.4]heptan-7-yl)methanesulfonamide], the EC50 lay in the range of 1 to 10 nM.

For the compound `C[C@@](O)(CF)C(=O)N1CC2(CC2)[C@H](NS(=O)(=O)CF)[C@@H]1Cc1cccc(-c2ccccc2)c1F` [compound 35, 1-fluoro-N-((6S,7S)-5-((S)-3-fluoro-2-hydroxy-2-methylpropanoyl)-6-((2-fluoro-[1,1′-biphenyl]-3-yl)methyl)-5-azaspiro[2.4]heptan-7-yl)methanesulfonamide], the EC50 lay within 0.0631 to 1 nM.

In turn, `CO[C@@H](C)C(=O)N1CC2(CC2)[C@H](NS(=O)(=O)CF)[C@@H]1Cc1cccc(-c2cc(F)cc(F)c2)c1F` [compound 69, 1-fluoro-N-((6S,7S)-5-((S)-2-methoxypropanoyl)-6-((2,3′,5′-trifluoro-[1,1′-biphenyl]-3-yl)methyl)-5-azaspiro[2.4]heptan-7-yl)methanesulfonamide] came in with an EC50 of 0.0631 to 1 nM.

`C[C@@H](F)S(=O)(=O)N[C@@H]1[C@H](Cc2cc(F)cc(-c3ccccc3)c2F)N(C(=O)[C@H]2CCO2)CC12CC2` [compound 55, (S)-N-((6S,7S)-6-((2,5-difluoro-[1,1′-biphenyl]-3-yl)methyl)-5-((R)-oxetane-2-carbonyl)-5-azaspiro[2.4]heptan-7-yl)-1-fluoroethane-1-sulfonamide]: the EC50 lay in the range of 1 to 10 nM.

`O=C([C@H]1CCCO1)N1CC2(CC2)[C@H](NS(=O)(=O)CF)[C@@H]1Cc1cccc(-c2cc(F)cc(F)c2)c1F` [compound 42, 1-fluoro-N-((6S,7S)-5-((R)-tetrahydrofuran-2-carbonyl)-6-((2,3′,5′-trifluoro-[1,1′-biphenyl]-3-yl)methyl)-5-azaspiro[2.4]heptan-7-yl)methanesulfonamide] returned an EC50 of 1 to 10 nM.

`C[C@@H](NC(=O)N1CC2(CC2)[C@H](NS(=O)(=O)CF)[C@@H]1Cc1cc(F)cc(-c2ccccc2)c1F)C(F)F` [compound 88, (6S,7S)-6-((2,5-difluoro-[1,1′-biphenyl]-3-yl)methyl)-N-((R)-1,1-difluoropropan-2-yl)-7-((fluoromethyl)sulfonamido)-5-azaspiro[2.4]heptane-5-carboxamide] showed a half-maximal effective concentration (EC50) of 1 to 10 nM.

The compound `C[C@@H](F)S(=O)(=O)N[C@@H]1[C@H](Cc2cccc(-c3cc(F)cc(F)c3)c2F)N(C(=O)C2CCO2)CC12CC2` (mixture of isomers) [compound 43, (S)-1-fluoro-N-((6S,7S)-5-((RS)-oxetane-2-carbonyl)-6-((2,3′,5′-trifluoro-[1,1′-biphenyl]-3-yl)methyl)-5-azaspiro[2.4]heptan-7-yl)ethane-1-sulfonamide] showed a concentration giving a half-maximal response (EC50) of 1 to 10 nM.

As to `C[C@@](O)(CF)C(=O)N1CC2(CC2)[C@H](NS(=O)(=O)CF)[C@@H]1Cc1cccc(-c2cc(F)cc(F)c2)c1F` [compound 83, 1-fluoro-N-((6S,7S)-5-((S)-3-fluoro-2-hydroxy-2-methylpropanoyl)-6-((2,3′,5′-trifluoro-[1,1′-biphenyl]-3-yl)methyl)-5-azaspiro[2.4]heptan-7-yl)methanesulfonamide], the EC50 lay within 1 to 10 nM.

`CO[C@H](C)C(=O)N1CC2(CC2)[C@H](NS(=O)(=O)C(F)F)[C@@H]1Cc1cccc(-c2cc(F)cc(F)c2)c1F` [compound 64, 1,1-difluoro-N-((6S,7S)-5-((R)-2-methoxypropanoyl)-6-((2,3′,5′-trifluoro-[1,1′-biphenyl]-3-yl)methyl)-5-azaspiro[2.4]heptan-7-yl)methanesulfonamide] had an EC50 of 1 to 10 nM.

Usually EC50 stands for the concentration giving half of the maximal effect.
